Laboratory results reported in patent US9056111B1, “Selective efflux inhibitors and related pharmaceutical compositions and methods of treatment” (STC.UNM, priority 2011, dated 2015).

Experiments:
[1] = target: ABCB1 (Homo sapiens, UniProt P08183); assay: JC-1 efflux inhibition dose response, flow cytometry, Jurkat-DNR cells; conditions: for IC50: IC50 ABCB1 (efflux inhibition of JC-1 substrate), Jurkat-DNR cells over-expressing ABCB1, averages of two to four replicates
Protocol: (§1) The HyperCyt® high throughput flow cytometry platform (IntelliCyt™, Albuquerque, N. Mex.) was used to sequentially sample cells from 384-well microplates (2 μL/sample) for flow cytometer presentation at a rate of 40 samples per minute.^62-63 Flow cytometric analysis was performed on a CyAn™ flow cytometer (Beckman-Coulter, Fullerton, Calif.). The resulting time-gated data files were analyzed with HyperView® software to determine compound activity in each well. Inhibition response curves were fitted by Prism® software (GraphPad Software, Inc., San Diego, Calif.) using nonlinear least-squares regression in a sigmoidal dose response model with variable slope, also known as the four-parameter logistic equation. This type of time-gated flow cytometric data analysis was described in detail for a previous ABC transporter screen from our group.^56
The assay provider's ABCB1 over-expressing Jurkat-DNR cell line is used for confirmatory follow up instead of the CCRF-Adr cells. Each cell line (Jurkat-DNR and Ig-MXP3) is run separately against all compounds (no differential cell staining) in dose response. The assay is conducted in 384-well format in a total volume of 15.1 μL. Cells and reagents are added sequentially as follows: 1) PBS buffer (5 μL/well); 2) test compound (100 nL/well); 3) drug-resistant cells (10 μL/well) pre-stained with the JC-1 substrate at 1 μM. Final in-well concentrations of test compound range from 50 μM to 69 nM over an 18 point dose response and the cell concentration is 1×10^6 cells/mL. Nicardipine (50 μM) is added to each plate as a pan-inhibition positive control. The plate is rotated end-over-end at 4 RPM and 25° C. for 30 minutes and then cell samples are analyzed and flow cytometric data of light scatter and fluorescence emission at 530+/−20 nm (488 nm excitation, FL1) are collected.
(§2) Each cell line (Jurkat-DNR and Ig-MXP3) was run separately against all compounds (no differential cell staining) in dose-response. The protocol differed from the single point screen as describe here. Cells and reagents were added sequentially as follows: 1) PBS buffer (5 μL per well); 2) test compound (100 nL per well); 3) drug-resistant cells (10 μL, per well) pre-exposed to the JC-1 substrate at 1 μM just prior to the well addition. Final in-well concentrations of test compound ranged from 50 μM to 69 nM over an 18 point dose-response and the cell concentration was 1×10^6 cells mL^−1.

[2] = target: T1, ABCB1 / ABCG2 (Homo sapiens, UniProt Q9UNQ0); assay: JC-1 efflux inhibition dose response, flow cytometry, Ig-MXP3 cells; conditions: human, probe JC-1 (1 µM), ~Fold G2 Selective (B1/G2), quotient of average ABCB1 IC50 and average ABCG2 IC50, efflux assay
T1 sequence (Q9UNQ0 1-655): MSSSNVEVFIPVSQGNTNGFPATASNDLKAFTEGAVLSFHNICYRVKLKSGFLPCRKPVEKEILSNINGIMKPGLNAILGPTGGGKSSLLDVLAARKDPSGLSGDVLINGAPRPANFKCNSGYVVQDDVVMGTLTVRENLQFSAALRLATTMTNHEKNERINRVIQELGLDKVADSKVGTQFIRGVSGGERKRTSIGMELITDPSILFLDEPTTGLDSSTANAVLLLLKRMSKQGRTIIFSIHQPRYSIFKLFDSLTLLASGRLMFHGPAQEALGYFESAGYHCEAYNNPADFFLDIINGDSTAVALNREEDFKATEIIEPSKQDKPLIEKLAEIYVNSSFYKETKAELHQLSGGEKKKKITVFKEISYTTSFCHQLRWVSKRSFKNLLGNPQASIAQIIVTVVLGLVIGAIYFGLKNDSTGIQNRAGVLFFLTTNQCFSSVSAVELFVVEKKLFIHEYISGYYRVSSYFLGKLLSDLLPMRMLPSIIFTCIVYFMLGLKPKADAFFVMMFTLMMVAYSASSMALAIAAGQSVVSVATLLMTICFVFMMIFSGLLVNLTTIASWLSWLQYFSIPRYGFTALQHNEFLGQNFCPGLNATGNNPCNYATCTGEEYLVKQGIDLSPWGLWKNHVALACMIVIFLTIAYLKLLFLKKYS
Protocol: as §1
(§3) The assay provider's ABCB1 over-expressing Jurkat-DNR cell line is used for confirmatory follow up instead of the CCRF-Adr cells. Each cell line (Jurkat-DNR and Ig-MXP3) is run separately against all compounds (no differential cell staining) in dose response. The assay is conducted in 384-well format in a total volume of 15.1 μL. Cells and reagents are added sequentially as follows: 1) PBS buffer (5 μL/well); 2) test compound (100 nL/well); 3) drug-resistant cells (10 μL/well) pre-stained with the JC-1 substrate at 1 μM. […] Nicardipine (50 μM) is added to each plate as a pan-inhibition positive control.
as §2, with “addition.” for “addition. Final in-well concentrations of test compound ranged from 50 μM to 69 nM over an 18 point dose-response and the cell concentration was 1×10^6 cells mL^−1.”

[3] = target: T2, ABCG2 (Homo sapiens, UniProt Q9UNQ0); assay: as above
T2 sequence (Q9UNQ0 1-655): T1 sequence (Q9UNQ0 1-655)
Protocol: as §1, §3
as §2, with “addition.” for “addition. Final in-well concentrations of test compound ranged from 50 μM to 69 nM over an 18 point dose-response and the cell concentration was 1×10^6 cells mL^−1.”

ABCB1, sequence (P08183 whole entry): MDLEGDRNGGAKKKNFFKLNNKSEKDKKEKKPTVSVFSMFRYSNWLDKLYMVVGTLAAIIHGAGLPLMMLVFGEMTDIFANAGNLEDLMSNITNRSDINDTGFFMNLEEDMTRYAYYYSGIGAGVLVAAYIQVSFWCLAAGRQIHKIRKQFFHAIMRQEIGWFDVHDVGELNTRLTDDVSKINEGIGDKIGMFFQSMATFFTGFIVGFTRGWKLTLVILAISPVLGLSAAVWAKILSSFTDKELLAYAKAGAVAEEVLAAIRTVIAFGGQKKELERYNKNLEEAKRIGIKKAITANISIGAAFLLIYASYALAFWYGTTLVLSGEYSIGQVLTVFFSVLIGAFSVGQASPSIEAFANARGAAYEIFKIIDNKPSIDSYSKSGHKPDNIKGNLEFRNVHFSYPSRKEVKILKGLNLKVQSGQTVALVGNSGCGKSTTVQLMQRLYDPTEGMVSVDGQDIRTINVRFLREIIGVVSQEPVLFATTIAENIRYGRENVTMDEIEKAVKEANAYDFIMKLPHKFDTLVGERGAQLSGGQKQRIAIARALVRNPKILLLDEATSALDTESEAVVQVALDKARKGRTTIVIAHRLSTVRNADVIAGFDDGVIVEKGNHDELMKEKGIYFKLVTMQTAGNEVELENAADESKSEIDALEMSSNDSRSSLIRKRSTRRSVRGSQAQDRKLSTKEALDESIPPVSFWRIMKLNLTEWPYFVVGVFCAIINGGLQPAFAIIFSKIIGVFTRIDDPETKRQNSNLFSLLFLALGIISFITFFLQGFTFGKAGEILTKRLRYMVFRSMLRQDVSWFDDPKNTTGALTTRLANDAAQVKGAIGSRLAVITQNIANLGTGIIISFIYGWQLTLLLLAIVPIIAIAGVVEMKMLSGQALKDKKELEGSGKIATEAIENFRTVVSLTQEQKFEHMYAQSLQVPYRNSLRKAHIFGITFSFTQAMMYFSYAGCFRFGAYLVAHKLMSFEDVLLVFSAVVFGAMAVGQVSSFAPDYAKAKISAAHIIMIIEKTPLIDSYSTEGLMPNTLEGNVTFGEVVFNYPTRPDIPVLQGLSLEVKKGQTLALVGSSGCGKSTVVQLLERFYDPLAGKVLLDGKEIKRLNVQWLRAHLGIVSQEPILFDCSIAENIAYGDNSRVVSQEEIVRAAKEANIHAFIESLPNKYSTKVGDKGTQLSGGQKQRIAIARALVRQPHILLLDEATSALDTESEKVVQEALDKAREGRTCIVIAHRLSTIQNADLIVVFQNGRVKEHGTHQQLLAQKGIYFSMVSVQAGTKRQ

Row | IC50 [1] [µM] | IC50 [3] [µM] | efflux inhibition activity ABCB1 ([1]; JC-1 efflux, Jurkat-DNR) | ~Fold G2 Selective (B1/G2) ([3]; quotient of average ABCB1 IC50 and average ABCG2 IC50, efflux assay) [fold] | SMILES | selectivity ratio at 30 min [2]
1 | 4.34 ± 2.09 | 2.27 ± 0.06 |  |  | O=C(c1ccccc1)N1CCN(c2cc(-c3ccccc3)nc3cc(-c4cccc(F)c4)nn23)CC1 [Compound 42] | 1.9
2 | 3.99 ± 2.31 | 2.03 ± 0.11 |  |  | O=C(c1ccccc1)N1CCN(c2cc(-c3ccccc3)nc3cc(-c4ccc(F)cc4)nn23)CC1 [Compound 43] | 2
3 | 4.55 | 2.37 ± 1.8 |  |  | COc1ccc(-c2cc(N3CCN(C(=O)c4ccoc4)CC3)n3nc(-c4ccccc4)cc3n2)cc1 [Compound 45] | 1.9
4 | 5.61 | 0.56 |  |  | O=C(c1ccoc1)N1CCN(c2cc(-c3ccccc3F)nc3cc(-c4ccccc4)nn23)CC1 [Compound 46] | 10
5 | 7.07 | 1.68 ± 0.61 |  |  | O=C(c1ccoc1)N1CCN(c2cc(-c3cccc(F)c3)nc3cc(-c4ccccc4)nn23)CC1 [Compound 47] | 4.2
6 | 11.8 | 6.45 |  |  | O=C(c1ccoc1)N1CCN(c2cc(-c3ccc(F)cc3)nc3cc(-c4ccccc4)nn23)CC1 [Compound 48] | 1.8
7 | 5.62 | 11.5 |  |  | CC(C)(C)c1cc(N2CCN(C(=O)c3ccoc3)CC2)n2nc(-c3ccccc3)cc2n1 [Compound 49] | 0.5
8 | 3.31 | 1.97 |  |  | CC(C)(C)c1cc2nc(-c3ccco3)cc(N3CCN(C(=O)c4ccoc4)CC3)n2n1 [Compound 50] | 1.7
9 | 8.42 | 1.56 ± 1.3 |  |  | O=C(c1ccoc1)N1CCN(c2cc(-c3ccco3)nc3cc(-c4cccs4)nn23)CC1 [Compound 51] | 5.4
10 | 41.5 | 1.89 ± 1.18 |  |  | O=C(c1ccoc1)N1CCN(c2cc(-c3ccco3)nc3cc(-c4ccc(Cl)cc4)nn23)CC1 [Compound 54] | 22
11 | 5.57 | 2.76 ± 2.14 |  |  | COc1ccccc1-c1cc2nc(-c3ccco3)cc(N3CCN(C(=O)c4ccoc4)CC3)n2n1 [Compound 55] | 2
12 | 3.45 | 0.58 |  |  | Cc1cccc(-c2cc3nc(-c4ccco4)cc(N4CCN(C(=O)c5ccoc5)CC4)n3n2)c1 [Compound 58] | 5.9
13 | 11.3 | 5.19 ± 4.22 |  |  | Cc1ccc(-c2cc3nc(-c4ccco4)cc(N4CCN(C(=O)c5ccoc5)CC4)n3n2)cc1 [Compound 59] | 2.2
14 | 3.98 ± 1.3 | 0.93 ± 0.27 |  |  | O=C(c1ccoc1)N1CCN(c2cc(-c3ccco3)nc3cc(-c4cccc(-c5ccco5)c4)nn23)CC1 [Compound 60] | 4.3
15 | 4.79 ± 4.23 | 1.58 ± 0.63 |  |  | O=C(c1ccoc1)N1CCN(c2cc(-c3ccccc3)nc3cc(-c4ccccc4)nn23)CC1 [Compound 62] | 3
16 | 15.8 ± 3.33 | 7.27 ± 3.01 |  |  | Cc1cc(N2CCN(C(=O)c3ccoc3)CC2)n2nc(-c3ccccc3)cc2n1 [Compound 63] | 2.2

Row | IC50 [1] [µM] | IC50 [3] [µM] | efflux inhibition activity ABCB1 ([1]; JC-1 efflux, Jurkat-DNR) | ~Fold G2 Selective (B1/G2) ([3]; quotient of average ABCB1 IC50 and average ABCG2 IC50, efflux assay) [fold] | SMILES | selectivity ratio at 30 min [2]
17 | 3.46 | 1.64 ± 0.03 |  |  | O=C(c1ccoc1)N1CCN(c2cc(-c3cccs3)nc3cc(-c4ccccc4)nn23)CC1 [Compound 64] | 2.1
18 | 0.68 | 0.84 ± 0.87 |  |  | Cc1ccc(-c2cc(N3CCN(C(=O)c4ccoc4)CC3)n3nc(-c4ccccc4)cc3n2)o1 [Compound 66] | 0.8
19 | 6.57 ± 2.13 | 2.77 ± 4.01 |  |  | O=C(c1ccco1)N1CCN(c2cc(-c3ccco3)nc3cc(-c4ccccc4)nn23)CC1 [Compound 67] | 2.4
20 | 5.56 ± 1.25 | 1.62 ± 1.27 |  |  | O=C(c1ccccc1)N1CCN(c2cc(-c3ccco3)nc3cc(-c4ccccc4)nn23)CC1 [Compound 69] | 3.4
21 | 8.99 ± 3.67 | 3.07 ± 1.88 |  |  | c1ccc(CN2CCN(c3cc(-c4ccco4)nc4cc(-c5ccccc5)nn34)CC2)cc1 [Compound 75] | 2.9
22 | > 50 | 2.71 ± 1.95 | completely lost | 18.5 | O=C(OCc1ccccc1)N1CCN(c2cc(-c3ccco3)nc3cc(-c4ccccc4)nn23)CC1 [Compound 76] | ~19
23 | 23.6 ± 12.1 | 5.71 ± 1.8 |  |  | c1ccc(-c2cc3nc(-c4ccco4)cc(N4CCNCC4)n3n2)cc1 [Compound 77] | 4.1
24 | 11.9 ± 8.94 | 25.5 ± 13.4 |  |  | CNCCCN(C)c1cc(-c2ccco2)nc2cc(-c3ccccc3)nn12 [Compound 79] | 0.5
25 | 17.5 ± 5.88 | 13 ± 7.88 |  |  | CN(CCN(C)c1cc(-c2ccco2)nc2cc(-c3ccccc3)nn12)C(=O)c1ccoc1 [Compound 80] | 1.3
26 | 13.1 ± 6.27 | 5.43 ± 4.11 |  |  | CN(CCCN(C)c1cc(-c2ccco2)nc2cc(-c3ccccc3)nn12)C(=O)c1ccoc1 [Compound 81] | 2.4
27 | 27.7 ± 14.5 | 7.68 ± 1.69 |  |  | CN(C)c1cc(-c2ccco2)nc2cc(-c3ccccc3)nn12 [Compound 82] | 3.6
28 | 4.06 ± 1.78 | 1.64 ± 0.52 |  |  | O=C1CN(c2cc(-c3ccco3)nc3cc(-c4ccccc4)nn23)CCN1c1ccccc1 [Compound 83] | 2.5
29 | 19.1 ± 9.52 | 2.25 ± 1.9 |  |  | O=C(c1ccoc1)N1CCCN(c2cc(-c3ccco3)nc3cc(-c4ccccc4)nn23)C1 [Compound 85] | 8.5
30 | 3.27 ± 1.43 | 4.65 ± 3.96 |  |  | CC1CN(C(=O)c2ccoc2)CCN1c1cc(-c2ccco2)nc2cc(-c3ccccc3)nn12 (centres unmarked) [Compound 86] | 0.7
31 | 1.63 ± 0.59 | 2.18 ± 1.93 |  |  | Cc1nc2cc(-c3ccccc3)nn2c(N2CCN(C(=O)c3ccoc3)CC2)c1C [Compound 89] | 0.7
